Measurements reported in article PMC10746543, “Design principles for cyclin K molecular glue degraders” (Nature Chemical Biology, 2023).
Several values for one entry are separate records, joined by “and”; a condition that tells them apart may be missing. Equal values may be shown once. Read-outs that look alike come from different tables or passages of the source.

Assays:
[1] = molecular target: T1, CDK12–cyclin K and DDB1 (Homo sapiens, UniProt Q16531+Q9NYV4, K965R); experiment: TR-FRET ternary complex formation assay (compound titration); format: binding
T1 construct: His6–CDK12 (a.a. 713–1,052); full-length or beta-propeller B domain deletion (ΔBPB: a.a. 396–705 deleted) constructs of His6–DDB1ΔBPB, StrepII–Avi–DDB1, or His6–Spy–DDB1; made in house; host or cells: Trichoplusia ni High Five insect cells (baculovirus)
T1 sequence (Q9NYV4 713-1052 K965R): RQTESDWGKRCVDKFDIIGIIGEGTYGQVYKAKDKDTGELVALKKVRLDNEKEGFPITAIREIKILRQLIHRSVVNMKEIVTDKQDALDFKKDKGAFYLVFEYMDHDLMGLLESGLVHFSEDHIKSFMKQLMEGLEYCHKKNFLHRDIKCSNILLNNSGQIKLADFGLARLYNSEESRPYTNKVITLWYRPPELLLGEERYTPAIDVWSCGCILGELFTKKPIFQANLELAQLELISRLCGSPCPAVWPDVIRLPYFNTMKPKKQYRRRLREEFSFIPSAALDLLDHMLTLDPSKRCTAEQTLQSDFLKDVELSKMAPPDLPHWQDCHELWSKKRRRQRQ
T1 sequence (O75909 1-267 partner): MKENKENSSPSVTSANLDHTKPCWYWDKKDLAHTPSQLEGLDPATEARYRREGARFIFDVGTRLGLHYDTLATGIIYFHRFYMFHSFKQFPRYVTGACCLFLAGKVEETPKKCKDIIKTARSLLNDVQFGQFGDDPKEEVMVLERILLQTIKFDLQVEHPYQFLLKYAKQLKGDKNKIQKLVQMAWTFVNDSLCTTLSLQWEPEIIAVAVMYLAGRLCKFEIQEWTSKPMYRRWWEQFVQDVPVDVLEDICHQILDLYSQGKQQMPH
T1 sequence (Q16531 whole entry): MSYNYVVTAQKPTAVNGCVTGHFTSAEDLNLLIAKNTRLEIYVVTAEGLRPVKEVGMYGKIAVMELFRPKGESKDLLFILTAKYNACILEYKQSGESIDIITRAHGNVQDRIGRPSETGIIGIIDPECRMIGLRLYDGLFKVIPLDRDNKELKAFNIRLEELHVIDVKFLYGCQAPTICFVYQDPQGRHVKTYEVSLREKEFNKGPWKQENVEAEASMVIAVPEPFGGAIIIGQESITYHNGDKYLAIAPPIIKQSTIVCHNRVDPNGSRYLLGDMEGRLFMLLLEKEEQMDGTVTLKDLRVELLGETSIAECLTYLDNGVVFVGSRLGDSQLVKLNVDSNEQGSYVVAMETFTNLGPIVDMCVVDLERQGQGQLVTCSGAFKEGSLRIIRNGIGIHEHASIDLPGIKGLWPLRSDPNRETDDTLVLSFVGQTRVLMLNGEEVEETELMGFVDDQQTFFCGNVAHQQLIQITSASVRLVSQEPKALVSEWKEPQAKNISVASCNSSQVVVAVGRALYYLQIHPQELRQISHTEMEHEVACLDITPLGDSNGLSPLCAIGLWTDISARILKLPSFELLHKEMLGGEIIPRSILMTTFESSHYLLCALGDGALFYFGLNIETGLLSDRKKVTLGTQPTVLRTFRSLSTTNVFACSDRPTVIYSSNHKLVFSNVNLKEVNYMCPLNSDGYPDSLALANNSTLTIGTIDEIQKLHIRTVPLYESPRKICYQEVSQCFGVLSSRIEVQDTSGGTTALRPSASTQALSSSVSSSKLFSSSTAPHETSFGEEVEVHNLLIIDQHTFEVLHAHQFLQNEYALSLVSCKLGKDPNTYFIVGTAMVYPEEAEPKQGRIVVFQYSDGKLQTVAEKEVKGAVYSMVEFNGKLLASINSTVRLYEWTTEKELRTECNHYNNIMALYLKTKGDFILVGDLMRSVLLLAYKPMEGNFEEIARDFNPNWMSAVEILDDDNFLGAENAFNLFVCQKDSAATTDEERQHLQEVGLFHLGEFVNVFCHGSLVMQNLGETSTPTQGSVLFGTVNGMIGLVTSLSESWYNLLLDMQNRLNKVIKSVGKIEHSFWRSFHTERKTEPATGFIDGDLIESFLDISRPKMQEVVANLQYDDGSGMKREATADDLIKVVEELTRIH
Method in brief: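 Signal was the ratio of 520 nm to 490 nm fluorescence, measured after a 70 μs delay that reduced background.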

[2] = molecular target: T2, CDK12 (Homo sapiens, UniProt Q16531+Q9NYV4); experiment: Label-free quantitative mass spectrometry in MDA-MB-231 cells, CDK12; format: cell-based
T2 construct: endogenous in cells; host or cells: MDA-MB-231
T2 sequence (Q9NYV4 whole entry): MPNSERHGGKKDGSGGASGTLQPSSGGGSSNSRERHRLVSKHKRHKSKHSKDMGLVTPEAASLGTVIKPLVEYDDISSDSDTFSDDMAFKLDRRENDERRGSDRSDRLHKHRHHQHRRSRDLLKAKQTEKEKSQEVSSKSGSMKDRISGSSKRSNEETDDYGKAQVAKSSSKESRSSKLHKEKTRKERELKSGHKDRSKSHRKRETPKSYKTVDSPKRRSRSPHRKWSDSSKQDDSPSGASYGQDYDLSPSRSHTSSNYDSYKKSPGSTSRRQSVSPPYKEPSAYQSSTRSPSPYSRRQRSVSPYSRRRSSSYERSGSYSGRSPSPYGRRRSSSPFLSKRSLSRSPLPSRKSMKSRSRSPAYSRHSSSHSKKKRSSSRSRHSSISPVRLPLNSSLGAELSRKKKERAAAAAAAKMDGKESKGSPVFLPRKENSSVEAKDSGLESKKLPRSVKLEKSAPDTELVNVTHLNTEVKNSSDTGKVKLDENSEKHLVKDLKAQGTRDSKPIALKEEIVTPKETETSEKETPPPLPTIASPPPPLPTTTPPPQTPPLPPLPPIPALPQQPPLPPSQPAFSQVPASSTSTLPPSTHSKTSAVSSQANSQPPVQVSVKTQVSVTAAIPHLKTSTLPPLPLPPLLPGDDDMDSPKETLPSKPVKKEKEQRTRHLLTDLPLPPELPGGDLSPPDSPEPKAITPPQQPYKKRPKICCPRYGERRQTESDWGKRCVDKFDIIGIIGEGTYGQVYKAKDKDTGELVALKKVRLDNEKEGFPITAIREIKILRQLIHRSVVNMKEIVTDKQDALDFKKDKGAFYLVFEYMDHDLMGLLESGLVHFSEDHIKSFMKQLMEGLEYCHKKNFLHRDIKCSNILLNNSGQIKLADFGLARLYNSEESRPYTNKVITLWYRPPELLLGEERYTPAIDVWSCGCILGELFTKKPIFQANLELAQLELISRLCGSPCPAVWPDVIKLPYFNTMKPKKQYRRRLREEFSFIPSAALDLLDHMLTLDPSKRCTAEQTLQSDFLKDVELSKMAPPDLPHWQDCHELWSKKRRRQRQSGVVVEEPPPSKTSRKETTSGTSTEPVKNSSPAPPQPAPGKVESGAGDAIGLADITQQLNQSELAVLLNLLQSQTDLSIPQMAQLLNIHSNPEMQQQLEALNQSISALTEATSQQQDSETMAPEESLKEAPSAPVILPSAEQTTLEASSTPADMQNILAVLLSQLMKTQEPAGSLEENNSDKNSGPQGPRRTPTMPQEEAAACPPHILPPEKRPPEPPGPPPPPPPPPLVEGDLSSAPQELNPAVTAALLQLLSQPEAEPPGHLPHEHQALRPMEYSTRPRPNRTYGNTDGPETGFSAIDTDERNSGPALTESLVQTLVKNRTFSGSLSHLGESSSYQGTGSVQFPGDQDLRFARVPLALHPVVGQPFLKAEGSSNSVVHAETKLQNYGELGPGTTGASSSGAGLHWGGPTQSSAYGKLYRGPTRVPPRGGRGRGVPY
T2 sequence (O75909 whole entry partner): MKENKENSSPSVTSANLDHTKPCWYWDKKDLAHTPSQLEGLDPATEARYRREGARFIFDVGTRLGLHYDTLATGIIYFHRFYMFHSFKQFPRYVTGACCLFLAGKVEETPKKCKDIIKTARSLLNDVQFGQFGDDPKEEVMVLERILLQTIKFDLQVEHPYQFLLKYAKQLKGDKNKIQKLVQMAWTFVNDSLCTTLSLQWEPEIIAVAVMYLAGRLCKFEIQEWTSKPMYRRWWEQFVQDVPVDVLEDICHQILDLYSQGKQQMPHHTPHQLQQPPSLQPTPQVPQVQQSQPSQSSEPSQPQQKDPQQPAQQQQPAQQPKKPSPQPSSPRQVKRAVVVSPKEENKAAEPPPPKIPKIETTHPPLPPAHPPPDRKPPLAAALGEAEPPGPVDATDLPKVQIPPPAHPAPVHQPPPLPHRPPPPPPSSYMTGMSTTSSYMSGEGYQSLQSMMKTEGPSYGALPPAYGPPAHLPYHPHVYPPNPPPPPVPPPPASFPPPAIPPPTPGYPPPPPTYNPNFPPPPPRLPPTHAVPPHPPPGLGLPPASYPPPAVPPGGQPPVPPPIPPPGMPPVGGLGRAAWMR
T2 sequence (Q16531 2-1140 limits assumed): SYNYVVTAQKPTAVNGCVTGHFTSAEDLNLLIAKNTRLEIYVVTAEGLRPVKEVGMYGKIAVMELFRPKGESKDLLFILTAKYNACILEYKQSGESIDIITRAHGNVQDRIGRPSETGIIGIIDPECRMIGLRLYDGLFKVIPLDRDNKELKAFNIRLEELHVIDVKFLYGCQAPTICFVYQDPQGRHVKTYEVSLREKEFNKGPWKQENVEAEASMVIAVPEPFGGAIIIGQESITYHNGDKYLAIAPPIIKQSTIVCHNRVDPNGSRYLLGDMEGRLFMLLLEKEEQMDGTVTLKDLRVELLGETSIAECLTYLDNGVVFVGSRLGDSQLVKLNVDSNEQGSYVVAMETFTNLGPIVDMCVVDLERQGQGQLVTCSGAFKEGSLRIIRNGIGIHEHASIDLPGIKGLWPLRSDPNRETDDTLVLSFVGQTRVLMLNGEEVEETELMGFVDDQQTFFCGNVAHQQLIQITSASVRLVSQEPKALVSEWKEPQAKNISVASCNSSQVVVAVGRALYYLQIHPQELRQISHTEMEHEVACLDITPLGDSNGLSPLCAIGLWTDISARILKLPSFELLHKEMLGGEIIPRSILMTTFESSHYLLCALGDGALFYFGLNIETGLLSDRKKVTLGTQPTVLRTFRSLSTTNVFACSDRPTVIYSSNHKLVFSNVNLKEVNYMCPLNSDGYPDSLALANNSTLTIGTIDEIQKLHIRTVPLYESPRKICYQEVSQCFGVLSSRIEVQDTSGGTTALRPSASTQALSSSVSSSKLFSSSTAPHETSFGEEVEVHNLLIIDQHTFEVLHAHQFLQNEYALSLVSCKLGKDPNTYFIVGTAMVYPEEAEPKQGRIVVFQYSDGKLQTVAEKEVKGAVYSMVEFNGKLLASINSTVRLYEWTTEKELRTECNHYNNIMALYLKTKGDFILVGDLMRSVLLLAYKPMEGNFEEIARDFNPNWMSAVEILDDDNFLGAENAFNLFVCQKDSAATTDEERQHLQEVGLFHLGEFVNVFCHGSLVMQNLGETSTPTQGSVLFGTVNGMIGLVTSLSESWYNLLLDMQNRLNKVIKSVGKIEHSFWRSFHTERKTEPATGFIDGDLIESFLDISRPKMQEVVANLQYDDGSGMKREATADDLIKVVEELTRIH
Method in brief: (§1)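 MDA-MB-231 cells treated 5 h with 1 µM cyclin K degrader or DMSO. Lysates digested with LysC and trypsin, then analysed by label-free diaPASEF LC-MS on a TimsTOF Pro2 with directDIA search and MS1 precursor quantification. Protein abundances scaled and analysed with limma.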

[3] = molecular target: T3, CDK2–cyclin A (Homo sapiens, UniProt P24941); experiment: Lanthascreen kinase binding assay, CDK2
T3 construct: purchased Thermo Fisher
Experimental: Lanthascreen experiments were performed using commercially available reagents (Thermo Fisher) and according to the manufacturer’s instructions.

[4] = test system: cyclin K; experiment: Label-free quantitative mass spectrometry in MDA-MB-231 cells, cyclin K; format: cell-based, human
Method in brief: as §1

[5] = label-free quantitative MS, replicate values
[6] = normalised to DMSO = 1, replicate values

CDK12 peptide count [2, 5]: 613.534 and 654.471
CDK12 peptide count (DMSO-normalised) [2, 6]: 0.6817 and 0.676
Lanthascreen signal, sheet CDK2 ([3]; Compound 0.038147 nM, raw replicates, experiment r13-r23): 0.0127 and 0.01284
Lanthascreen signal, sheet CDK2 ([3]; Compound 0.038147 nM, raw replicates, experiment r36-r46): 0.01329 and 0.01256
Lanthascreen signal, sheet CDK2 ([3]; Compound 0.038147 nM, raw replicates, experiment r48-r58): 0.01292 and 0.01236
Lanthascreen signal, sheet CDK2 ([3]; Compound 0.152588 nM, raw replicates, experiment r13-r23): 0.01305 and 0.01264
Lanthascreen signal, sheet CDK2 ([3]; Compound 0.152588 nM, raw replicates, experiment r36-r46): 0.01299 and 0.01282
Lanthascreen signal, sheet CDK2 ([3]; Compound 0.152588 nM, raw replicates, experiment r48-r58): 0.01645 and 0.0151
Lanthascreen signal, sheet CDK2 ([3]; Compound 0.610352 nM, raw replicates, experiment r13-r23): 0.01296 and 0.01232
Lanthascreen signal, sheet CDK2 ([3]; Compound 0.610352 nM, raw replicates, experiment r36-r46): 0.01373 and 0.01242
Lanthascreen signal, sheet CDK2 ([3]; Compound 0.610352 nM, raw replicates, experiment r48-r58): 0.01563 and 0.01504
Lanthascreen signal, sheet CDK2 ([3]; Compound 1.02544 nM, raw replicates, experiment r1-r11): 0.01131 and 0.01009
Lanthascreen signal, sheet CDK2 ([3]; Compound 3.15521 nM, raw replicates, experiment r1-r11): 0.009228 and 0.009357
Lanthascreen signal, sheet CDK2 ([3]; Compound 4.57247 nM, experiment r25-r34): 0.01614
Lanthascreen signal, sheet CDK2 ([3]; Compound 9.76563 nM, raw replicates, experiment r13-r23): 0.01326 and 0.01312
Lanthascreen signal, sheet CDK2 ([3]; Compound 9.76563 nM, raw replicates, experiment r36-r46): 0.01252 and 0.01318
Lanthascreen signal, sheet CDK2 ([3]; Compound 9.76563 nM, raw replicates, experiment r48-r58): 0.01463 and 0.01476
Lanthascreen signal, sheet CDK2 ([3]; Compound 9.76563 nM, raw replicates, experiment r60-r70): 0.02088 and 0.02079 and 0.02078
Lanthascreen signal, sheet CDK2 ([3]; Compound 13.7174 nM, experiment r25-r34): 0.01619
Lanthascreen signal, sheet CDK2 ([3]; Compound 39.0625 nM, raw replicates, experiment r13-r23): 0.01273 and 0.01299
Lanthascreen signal, sheet CDK2 ([3]; Compound 39.0625 nM, raw replicates, experiment r36-r46): 0.01285 and 0.01213
Lanthascreen signal, sheet CDK2 ([3]; Compound 39.0625 nM, raw replicates, experiment r48-r58): 0.01551 and 0.01552
Lanthascreen signal, sheet CDK2 ([3]; Compound 39.0625 nM, raw replicates, experiment r60-r70): 0.01951 and 0.02081 and 0.02075
Lanthascreen signal, sheet CDK2 ([3]; Compound 41.1523 nM, experiment r25-r34): 0.01684
Lanthascreen signal, sheet CDK2 ([3]; Compound 123.457 nM, experiment r25-r34): 0.01665
Lanthascreen signal, sheet CDK2 ([3]; Compound 156.25 nM, raw replicates, experiment r13-r23): 0.01317 and 0.01374
Lanthascreen signal, sheet CDK2 ([3]; Compound 156.25 nM, raw replicates, experiment r36-r46): 0.01372 and 0.0133
Lanthascreen signal, sheet CDK2 ([3]; Compound 156.25 nM, raw replicates, experiment r48-r58): 0.01549 and 0.01505
Lanthascreen signal, sheet CDK2 ([3]; Compound 156.25 nM, raw replicates, experiment r60-r70): 0.01961 and 0.02092 and 0.0201
Lanthascreen signal, sheet CDK2 ([3]; Compound 370.37 nM, experiment r25-r34): 0.01637
Lanthascreen signal, sheet CDK2 ([3]; Compound 625 nM, raw replicates, experiment r13-r23): 0.0132 and 0.01347
Lanthascreen signal, sheet CDK2 ([3]; Compound 625 nM, raw replicates, experiment r36-r46): 0.01352 and 0.01293
Lanthascreen signal, sheet CDK2 ([3]; Compound 625 nM, raw replicates, experiment r48-r58): 0.01526 and 0.01348
Lanthascreen signal, sheet CDK2 ([3]; Compound 625 nM, raw replicates, experiment r60-r70): 0.01884 and 0.01787 and 0.01937
Lanthascreen signal, sheet CDK2 ([3]; Compound 2500 nM, raw replicates, experiment r13-r23): 0.01229 and 0.01217
Lanthascreen signal, sheet CDK2 ([3]; Compound 2500 nM, raw replicates, experiment r36-r46): 0.01331 and 0.01286
Lanthascreen signal, sheet CDK2 ([3]; Compound 2500 nM, raw replicates, experiment r48-r58): 0.01476 and 0.01465
Lanthascreen signal, sheet CDK2 ([3]; Compound 2500 nM, raw replicates, experiment r60-r70): 0.01706 and 0.01739 and 0.01756
Lanthascreen signal, sheet CDK2 ([3]; Compound 3155.21 nM, raw replicates, experiment r1-r11): 0.009677 and 0.009716
Lanthascreen signal, sheet CDK2 ([3]; Compound 3333.33 nM, experiment r25-r34): 0.01493
Lanthascreen signal, sheet CDK2 ([3]; Compound 10000 nM, experiment r25-r34): 0.01253
Lanthascreen signal, sheet CDK2 ([3]; Compound 10000 nM, raw replicates, experiment r13-r23): 0.01083 and 0.01088
Lanthascreen signal, sheet CDK2 ([3]; Compound 10000 nM, raw replicates, experiment r36-r46): 0.01118 and 0.01139
Lanthascreen signal, sheet CDK2 ([3]; Compound 10000 nM, raw replicates, experiment r48-r58): 0.01493 and 0.01454
Lanthascreen signal, sheet CDK2 ([3]; Compound 10000 nM, raw replicates, experiment r60-r70): 0.01597 and 0.01433 and 0.01526
Lanthascreen signal, sheet CDK2 ([3]; Compound 10002 nM, raw replicates, experiment r1-r11): 0.009692 and 0.009444
IC50 ([3]; Lanthascreen, average, Extended Data Fig. 8, read-out: CDK2 IC50): > 10000 nM
IC50 ([3]; Supplementary Table 2, read-out: Lanthascreen IC50 [nM] CDK2): > 10000 nM
SMILES: Cn1cc(-n2cnc3c(NCc4nc5cc(Cl)c(Cl)cc5[nH]4)nc(N4CCOCC4)nc32)cn1 [SR-4835]
TR-FRET signal ([1]; compound concentration 0.468 nM): 0.24 and 0.2487 and 0.176 and 0.1833 and 0.1905 and 0.1902
TR-FRET signal at compound concentration 0.468 nM ([1]; compound concentration 0.468 nM, raw replicate titration data): 0.24 and 0.2487 and 0.176 and 0.1833 and 0.1905 and 0.1902
TR-FRET signal ([1]; compound concentration 2.16 nM): 0.2823 and 0.3111 and 0.2192 and 0.2275 and 0.225 and 0.234
TR-FRET signal at compound concentration 2.16 nM ([1]; compound concentration 2.16 nM, raw replicate titration data): 0.2823 and 0.3111 and 0.2192 and 0.2275 and 0.225 and 0.234
TR-FRET signal ([1]; compound concentration 3.6 nM): 0.3779 and 0.4354 and 0.3063 and 0.3176 and 0.3203 and 0.3168
TR-FRET signal at compound concentration 3.6 nM ([1]; compound concentration 3.6 nM, raw replicate titration data): 0.3779 and 0.4354 and 0.3063 and 0.3176 and 0.3203 and 0.3168
TR-FRET signal ([1]; compound concentration 7.92001 nM): 0.6106 and 0.7496 and 0.4912 and 0.5419 and 0.5567 and 0.5439
TR-FRET signal at compound concentration 7.92001 nM ([1]; compound concentration 7.92001 nM, raw replicate titration data): 0.6106 and 0.7496 and 0.4912 and 0.5419 and 0.5567 and 0.5439
TR-FRET signal ([1]; compound concentration 15.84 nM): 1.0796 and 1.304 and 0.9239 and 1.0376 and 1.022 and 1.028
TR-FRET signal at compound concentration 15.84 nM ([1]; compound concentration 15.84 nM, raw replicate titration data): 1.0796 and 1.304 and 0.9239 and 1.0376 and 1.022 and 1.028
TR-FRET signal ([1]; compound concentration 30.96 nM): 1.682 and 1.792 and 1.613 and 1.69 and 1.622 and 1.648
TR-FRET signal at compound concentration 30.96 nM ([1]; compound concentration 30.96 nM, raw replicate titration data): 1.682 and 1.792 and 1.613 and 1.69 and 1.622 and 1.648
TR-FRET signal ([1]; compound concentration 62.6401 nM): 1.888 and 1.962 and 1.877 and 1.886 and 1.857 and 1.865
TR-FRET signal at compound concentration 62.6401 nM ([1]; compound concentration 62.6401 nM, raw replicate titration data): 1.888 and 1.962 and 1.877 and 1.886 and 1.857 and 1.865
TR-FRET signal ([1]; compound concentration 125.28 nM): 1.977 and 2.1 and 1.914 and 1.988 and 1.925 and 1.931
TR-FRET signal at compound concentration 125.28 nM ([1]; compound concentration 125.28 nM, raw replicate titration data): 1.977 and 2.1 and 1.914 and 1.988 and 1.925 and 1.931
TR-FRET signal ([1]; compound concentration 244.8 nM): 2.037 and 2.154 and 1.951 and 1.963 and 1.955 and 1.942
TR-FRET signal at compound concentration 244.8 nM ([1]; compound concentration 244.8 nM, raw replicate titration data): 2.037 and 2.154 and 1.951 and 1.963 and 1.955 and 1.942
TR-FRET signal ([1]; compound concentration 993.601 nM): 2.0169 and 2.142 and 1.9225 and 1.946 and 1.977 and 1.949
TR-FRET signal at compound concentration 993.601 nM ([1]; compound concentration 993.601 nM, raw replicate titration data): 2.0169 and 2.142 and 1.9225 and 1.946 and 1.977 and 1.949
TR-FRET signal ([1]; compound concentration 2001.6 nM): 2.032 and 2.062 and 1.95 and 1.938 and 1.928 and 1.943
TR-FRET signal at compound concentration 2001.6 nM ([1]; compound concentration 2001.6 nM, raw replicate titration data): 2.032 and 2.062 and 1.95 and 1.938 and 1.928 and 1.943
cyclin K depletion, result in words ([4]; MDA-MB-231 cells, 1 µM, 5 h): more effective at depleting cyclin K than CR8
cyclin K abundance (label-free MS) ([4]; individual replicates, sheet EDF7): 69.2958 and 61.7731
cyclin K abundance (label-free MS) [4, 5]: 69.2958 and 61.7731
CCNK peptide count (DMSO-normalised) [4, 6]: 0.03786 and 0.03436
average CCNK peptide count ([4]; sheet EDF7): 65.5345
